{
  "source": "patent US20210299109A1",
  "about": "“AGENTS FOR TREATING CANCER AND METHODS FOR IDENTIFYING SAID AGENTS” (MINERVA BIOTECHNOLOGIES CORPORATION, priority 2017, published 2021)",
  "key": {"[1]": {"tested_on": "MUC1* positive cancer cells", "settings": "in vitro; cited from earlier work"}, "[2]": {"tested_on": "human naïve state stem cells", "experiment": "stem cell drug screen on naïve state stem cells", "type": "cell-based", "settings": "for effect on naïve stem cells: pluripotency, growth, differentiation (first panel, FIG. 2, 7-10): 6 uM, 3 days, with or without NME7AB", "experimental": "(§1) The stem cell screening assay, was performed in both the presence and absence of the stem cell growth factors: NME7AB for growing naïve stem cells or FGF for growing primed stem cells. If the cognate growth factor was present, then the biological or small molecule would have to compete away the growth factor to get an effect. Therefore, we expected to see more of an effect when the growth factor, FGF for primed stem cells or NME7AB or NME1 dimers for naïve stem cells, was absent. The effect of the compounds on stem cells was visually determined and compounds were ranked 0-4, with 4 being the greatest effect and 0 being no observable effect. The major effect that was observed was a change from pluripotent stem cell morphology, which is a cobblestone pattern of small round cells with a large nucleus to cytoplasm ratio, to that of differentiating stem cells, which are elongated, large and flattened cells with a smaller nucleus to cytoplasm ratio. […] […] In this particular case, the naïve state stem cells were maintained in a naïve state by culturing in a media containing NME7AB or NME1 dimers. However, other methods such as 2i and 5i (Silva et al., 2008, Nichols and Smith, 2009, Theunissen et al., 2014)] can be used to maintain stem cells in a more naïve state. In this case primed state stem cells were cultured in bFGF over a layer of MEFs, although it is known that any bFGF containing media will maintain stem cells in the primed state.\nPercent inhibition of cancer cell migration was performed in a wound healing assay. The percent area that the invading cancer cells occupied, in the presence of a drug candidate compared to the controls, was quantified by Image J cell software which enables cell counting from photographs. IC50's were calculated by performing migration experiments at several compound concentrations and then applying Hill's equation. Inhibition of cancer cell proliferation was quantified by automated cell counting in the presence or absence of a drug candidate. Here, the inhibition of cancer cell proliferation was scored 1 if proliferation was inhibited by 25%, 2 if inhibited by 50%, 3 for 75% and 4 for the highest degree of inhibition of proliferation, and 0 for the lowest. The effect of the drug candidates on stem cell pluripotency or proliferation was scored by eye, based on cell morphology and cell density, with 0 being no change in morphology or cell number and 4 being the most profound effect, with the stem cells taking on the morphology of a differentiating cell, along with much fewer cells indicative of inhibition of proliferation. As an example, FIGS. 30A-30F show photographs of naïve stem cell, primed stem cell and fibroblast controls. FIGS. 31A-31F show the effect of compounds of the invention on naïve state stem cells, where the number of ‘+’ signs indicates the score from 0-4 of ability of compound to inhibit pluripotency, proliferation of naïve stem cells or ability to induce their differentiation. […] FIGS. 36-44 and 65-87 show photographs and IC50 graphs of the compounds of the invention, inhibiting cancer cell migration and invasion. Cancer cell migration is a hallmark of metastatic cancer.\nStem cells whether embryonic or induced pluripotent stem (iPS) cells were cultured in a minimal, serum-free media that contained human recombinant NME7AB at a concentration of 2-32 nM wherein 4-8 nM is preferred and 4 nM is more preferred. […]"}, "[3]": {"tested_on": "cancer cells", "settings": "cited from earlier work"}, "[4]": {"tested_on": "human primed state stem cells", "experiment": "stem cell drug screen on primed state stem cells", "type": "cell-based", "experimental": "as §1\nPercent inhibition of cancer cell migration was performed in a wound healing assay. The percent area that the invading cancer cells occupied, in the presence of a drug candidate compared to the controls, was quantified by Image J cell software which enables cell counting from photographs. IC50's were calculated by performing migration experiments at several compound concentrations and then applying Hill's equation. Inhibition of cancer cell proliferation was quantified by automated cell counting in the presence or absence of a drug candidate. Here, the inhibition of cancer cell proliferation was scored 1 if proliferation was inhibited by 25%, 2 if inhibited by 50%, 3 for 75% and 4 for the highest degree of inhibition of proliferation, and 0 for the lowest. The effect of the drug candidates on stem cell pluripotency or proliferation was scored by eye, based on cell morphology and cell density, with 0 being no change in morphology or cell number and 4 being the most profound effect, with the stem cells taking on the morphology of a differentiating cell, along with much fewer cells indicative of inhibition of proliferation. As an example, FIGS. 30A-30F show photographs of naïve stem cell, primed stem cell and fibroblast controls. […]"}, "[5]": {"tested_on": "naïve stem cells", "experiment": "RT-PCR of differentiation markers and super-enhancer target genes in naïve stem cells", "type": "cell-based, human", "text": "The genes whose expression increased as a result of treatment with the compounds of the invention, in a concentration dependent manner, are fibronectin and vimentin, which both increase as stem cells initiate differentiation and NF1, which is one of the first genes to increase when stem cells begin to differentiate down the neural lineage. […] Thus, compounds of the invention that induce markers of differentiation are useful for the treatment of cancers, because cancer cells, by definition, have de-differentiated, which allows them to continually self-replicate. […] Expression of metastatic marker E-cadherin was reduced and expression of differentiation markers fibronectin, vimentin and NF1 were increased. Novel compounds of the invention are highly specific. […] Although we discovered that NME1 dimers, NME7AB and NME7-X1 are all activating ligands of the MUC1* growth factor receptor and they bind to its extracellular domain, we have developed ample evidence that both NME7AB and NME7-X1 have other binding partners and can exert oncogenic effects, independent of MUC1*.\nWe first used RT-PCR to measure expression of these super-enhancer target genes and other genes of interest in naïve stem cells in the presence or absence of a few compounds of the invention. […] We also measured expression of microRNA-145, in response to treatment with compounds of the invention. […]"}, "[6]": {"tested_on": "human fibroblasts", "experiment": "effect on fibroblast proliferation (surrogate for normal cells)", "type": "cell-based", "settings": "500 nM final concentration", "text": "However, fibroblasts are more differentiated than stem cells but are able to self-replicate for defined periods of time. We tested selected compounds of the invention to determine if these compounds were just cytotoxic or if they selectively affected stem cells and, importantly, cancer cells, but not normal, healthy cells. Here, we used fibroblasts as a surrogate for normal cells. […] […] Each compound was scored for its effect on fibroblast proliferation where “+” indicates 25% inhibition of fibroblast growth, “++” 50% inhibition and “+++” 75% inhibition of growth."}},
  "data": [
    {"compound": "COC(=O)c1ccc(C2c3[nH]c4ccccc4c3CCN2C(=O)c2cccc(Cl)c2)cc1", "note": "(centres unmarked) [MN0642]", "values": [
      {"measurement": "inhibition of growth of cancer cells", "setting": "[1]", "result": "inhibit the growth of cancer cells in vitro"},
      {"measurement": "effect on naïve stem cells: pluripotency, growth, differentiation (first panel, FIG. 2, 7-10)", "setting": "[2]", "result": "induced differentiation"}
    ]},
    {"compound": "FLR peptide: synthetic peptide corresponding to the extracellular domain of MUC1*, FLR also known as PSMGFR (SEQ ID NO:3) (GTINVHDVETQFNQYKTEAASRYNLTISDVSVSDVPFPFSAQSGA; the extracellular domain of Native Primary Sequence of the MUC1 Growth Factor Receptor (nat-PSMGFR - an example of “PSMGFR”))", "values": [
      {"measurement": "inhibition of the transition of regular cancer cells to metastatic cancer cells", "setting": "[3]", "result": "inhibit the transition of regular cancer cells to metastatic cancer cells"},
      {"measurement": "effect on naïve stem cells: pluripotency, growth, differentiation (first panel, FIG. 2, 7-10)", "setting": "[2]", "result": "induced differentiation"}
    ]},
    {"compound": "CCCCNC(=O)N1CCc2c([nH]c3ccccc23)C1C(C)c1ccccc1", "note": "(centres unmarked) [MN1130]", "values": [
      {"measurement": "effect on naïve stem cells: pluripotency, growth, differentiation (first panel, FIG. 2, 7-10)", "setting": "[2]", "result": "induced differentiation"},
      {"measurement": "effect on primed stem cells (first panel, FIG. 2-6)", "setting": "[4]; 6 uM, 3 days, with or without FGF", "result": "modest effect"}
    ]},
    {"compound": "Cc1[nH]c(/C=C2\\C(=O)Nc3ccc(S(=O)(=O)N(C)c4cccc(Cl)c4)cc32)c(C)c1C(=O)N1CCN(C)CC1", "note": "[SU11274]", "values": [
      {"measurement": "up-regulation of markers of differentiation (fibronectin, vimentin, NF1) in naïve stem cells", "setting": "[5]", "result": "did not cause up-regulation of markers of differentiation"}
    ]},
    {"compound": "Cc1sc2c(c1C)C(c1ccc(Cl)cc1)=N[C@@H](CC(=O)OC(C)(C)C)c1nnc(C)n1-2", "note": "[JQ1(+)]", "values": [
      {"measurement": "effect on fibroblasts", "setting": "[6]", "result": "same effect on fibroblasts as it does on primed state stem cells"},
      {"measurement": "effect on naïve stem cell growth", "setting": "[2]", "result": "inhibitory effect"},
      {"measurement": "induction of differentiation and growth inhibition of naïve state stem cells", "setting": "[2]; 500 nM or 1 uM, cells cultured in NME7AB or NME1 dimers", "result": "dramatically induced differentiation"},
      {"measurement": "effect on primed stem cell growth", "setting": "[4]", "result": "not primed stem cell growth"},
      {"measurement": "effect on the size of primed stem cell colonies", "setting": "[4]; treated for 3 days, 500 nM or 1 uM", "result": "modest effect"},
      {"measurement": "induction of differentiation of primed state stem cells", "setting": "[4]; treated for 3 days, JQ1 at 500 nM or 1 uM, bFGF absent", "result": "None of these agents appeared to induce differentiation"},
      {"measurement": "up-regulation of markers of differentiation (fibronectin, vimentin, NF1) in naïve stem cells", "setting": "[5]", "result": "did not cause up-regulation of markers of differentiation"}
    ]}
  ]
}
